In ChEMBL document CHEMBL5724796, “Tm Shift (DSF) assay results for EUbOPEN Chemogenomics Library” (2024):
Residues, ends and D or L forms follow the SMILES beside them. *: point of attachment. Boc = CC(C)(C)OC(=O)*

Columns and labels:
[1] = biological target: Fibroblast growth factor receptor 2 (Homo sapiens) (UniProt P21802); settings: Compound concentration 20.0 uM
Description: Thermal Shift Assay. Domain: start/stop: T457-E768

[2] = biological target: T1, Peregrin (Homo sapiens) (UniProt P55201); settings: Compound concentration 20.0 uM
T1 sequence (whole entry): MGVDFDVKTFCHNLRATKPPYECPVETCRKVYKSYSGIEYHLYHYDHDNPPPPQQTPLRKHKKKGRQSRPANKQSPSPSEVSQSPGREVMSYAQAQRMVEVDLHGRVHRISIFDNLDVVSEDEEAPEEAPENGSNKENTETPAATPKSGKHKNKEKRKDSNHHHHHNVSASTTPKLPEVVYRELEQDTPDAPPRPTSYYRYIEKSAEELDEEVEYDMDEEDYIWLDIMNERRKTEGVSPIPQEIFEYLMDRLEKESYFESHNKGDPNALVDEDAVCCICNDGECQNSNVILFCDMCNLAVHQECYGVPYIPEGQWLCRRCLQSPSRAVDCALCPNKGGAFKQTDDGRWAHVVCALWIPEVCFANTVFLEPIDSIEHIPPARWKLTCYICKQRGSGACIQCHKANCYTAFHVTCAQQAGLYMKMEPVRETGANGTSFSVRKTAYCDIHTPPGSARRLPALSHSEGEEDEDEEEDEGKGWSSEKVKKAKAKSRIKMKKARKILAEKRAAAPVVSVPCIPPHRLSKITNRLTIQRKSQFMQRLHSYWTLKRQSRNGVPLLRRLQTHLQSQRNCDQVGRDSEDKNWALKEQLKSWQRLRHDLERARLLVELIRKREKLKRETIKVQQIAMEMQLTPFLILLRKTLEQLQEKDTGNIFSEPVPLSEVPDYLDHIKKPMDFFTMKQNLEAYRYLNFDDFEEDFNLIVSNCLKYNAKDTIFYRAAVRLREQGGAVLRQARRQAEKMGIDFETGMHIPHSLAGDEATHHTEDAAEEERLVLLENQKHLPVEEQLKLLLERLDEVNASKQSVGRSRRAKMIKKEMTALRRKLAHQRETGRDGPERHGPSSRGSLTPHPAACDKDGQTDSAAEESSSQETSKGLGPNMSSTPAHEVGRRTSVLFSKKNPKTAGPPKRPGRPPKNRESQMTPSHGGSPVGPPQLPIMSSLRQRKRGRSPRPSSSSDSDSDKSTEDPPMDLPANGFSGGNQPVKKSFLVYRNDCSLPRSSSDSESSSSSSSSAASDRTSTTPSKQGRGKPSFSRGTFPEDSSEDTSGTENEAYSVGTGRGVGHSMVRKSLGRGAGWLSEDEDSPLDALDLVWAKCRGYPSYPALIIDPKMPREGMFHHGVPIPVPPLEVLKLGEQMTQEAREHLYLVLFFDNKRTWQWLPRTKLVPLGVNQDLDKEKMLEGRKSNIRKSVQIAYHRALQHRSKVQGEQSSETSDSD

Chain of Fibroblast growth factor receptor 2 (Homo sapiens) (P21802 22-821 limits assumed): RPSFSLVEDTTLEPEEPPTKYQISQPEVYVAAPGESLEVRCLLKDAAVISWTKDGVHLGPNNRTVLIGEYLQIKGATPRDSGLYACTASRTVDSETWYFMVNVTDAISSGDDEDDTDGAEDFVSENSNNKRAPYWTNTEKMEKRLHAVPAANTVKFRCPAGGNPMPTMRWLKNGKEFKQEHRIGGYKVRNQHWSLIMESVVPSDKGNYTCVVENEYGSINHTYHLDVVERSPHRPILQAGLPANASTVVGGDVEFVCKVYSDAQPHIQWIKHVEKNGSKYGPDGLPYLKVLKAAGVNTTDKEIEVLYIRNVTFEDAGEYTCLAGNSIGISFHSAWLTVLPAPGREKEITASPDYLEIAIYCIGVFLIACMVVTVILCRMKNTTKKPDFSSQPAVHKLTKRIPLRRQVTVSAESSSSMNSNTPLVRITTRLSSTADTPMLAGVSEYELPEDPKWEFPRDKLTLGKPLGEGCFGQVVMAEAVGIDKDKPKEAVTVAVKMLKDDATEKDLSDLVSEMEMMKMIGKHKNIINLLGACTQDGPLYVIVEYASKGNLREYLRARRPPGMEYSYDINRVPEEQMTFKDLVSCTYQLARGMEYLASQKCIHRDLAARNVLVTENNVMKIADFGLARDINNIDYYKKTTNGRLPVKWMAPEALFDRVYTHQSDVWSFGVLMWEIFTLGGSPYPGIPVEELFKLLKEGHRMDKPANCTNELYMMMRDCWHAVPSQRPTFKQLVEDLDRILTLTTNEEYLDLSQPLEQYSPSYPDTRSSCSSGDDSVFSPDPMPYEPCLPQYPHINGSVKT

Compound | ΔTm [1] | ΔTm [2]
O=C(O)Cn1nnc(-c2ccc(CN(CCCCOc3ccc(CN4CCCC4)cc3)CCc3ccccc3)cc2)n1 | -2.96 °C | -2.23 °C
FC(F)(F)Cn1cc(-c2ccncc2)c(-c2ccc(OCc3ccc4ccccc4n3)cc2)n1 | 0.04 °C | 0.9 °C
CC(C)[C@H](NC(=O)OCc1ccccc1)C(=O)NC(CC(=O)O)C(=O)CF (stereo partly specified) | 0.74 °C | -1.71 °C
CCC(CC)N(CCN(C)C(=O)CCC(=O)O)Cc1cccc(C(=O)Nc2sc3c(c2C(=O)c2cnn(-c4ccc(Cl)c(C(F)(F)F)c4)c2)CCC(C)(C)C3)c1 | -2.12 °C | -1.97 °C
CNc1nccc(CN(CC2CCNCC2)S(=O)(=O)c2ccc(S(=O)(=O)N(Cc3ccc(Cl)cc3)C3CCCC3)cc2)n1 | -0.24 °C | 1.3 °C
Cn1c(=O)cc(N2CCC[C@@H](N)C2)n(Cc2cc(F)ccc2C#N)c1=O | 0.72 °C | 0.76 °C
NC(=O)c1cccc(NC(=O)CCC(=O)NCCc2cn(CCNS(=O)(=O)c3cccc(C(=O)O)c3)nn2)c1 | -1.91 °C | -1.38 °C
Cc1cc(OCCCNCC(C)(C)C(N)=O)ccc1Cc1c(O[C@@H]2O[C@H](CO)[C@@H](O)[C@H](O)[C@H]2O)n[nH]c1C(C)C | -0.15 °C | 1.07 °C
O=C1/C(=N/Nc2ccc(S(=O)(=O)O)cc2)C(c2ccc([N+](=O)[O-])cc2)=NN1c1ccccc1 | 0.4 °C | 0.37 °C
O=C(O)CCNc1cc(N2CCc3ccccc3CC2)nc(-c2ccccn2)n1 | 0.4 °C | 0.6 °C
CCCOc1ccc(NC(=O)CN2CCN(C)CC2)cc1-c1nc(CC)c(CC)c(=O)[nH]1 | -0.52 °C | 1.24 °C
O=C(C=Cc1ccc(O)cc1)c1ccc(O)cc1O | 1.26 °C | 0.82 °C
NC(=O)c1cnc(N[C@@H]2CCCC[C@@H]2N)nc1Nc1cccc(-n2nccn2)c1 | 0.98 °C | -1.09 °C
NC(=S)c1cccc(-c2cn(C3CCN(S(=O)(=O)C(F)(F)F)CC3)c3cc(CNC(=O)C4CNC4)ccc23)c1 | 0.25 °C | 5.2 °C
COc1nc(N)nc(Nc2cc(S(N)(=O)=O)ccc2N[C@@H](c2cccc3c2OC(F)(F)O3)c2ncccc2Cl)n1 | 1.9 °C | -3.63 °C
OC1CN=C2c3ccn([C@@H]4O[C@H]([C@H](O)c5ccc(Cl)cc5)[C@@H](O)[C@H]4O)c3N=CN21 (stereo partly specified) | 0.52 °C | -0.74 °C
Cc1ncc(Cl)cc1NCc1ccc(C(=O)N[C@@H](CC2CCCC2)C(=O)NC2CC2)s1 | 1.09 °C | -0.65 °C
O=[N+]([O-])c1ccc(CSc2ncnc3c2ncn3[C@@H]2O[C@H](CO)[C@@H](O)[C@H]2O)cc1 | 0.22 °C | 1.12 °C
Cc1c(CN2CCC(Nc3ncnc4sc(CC(F)(F)F)cc34)CC2)ccc2c1cc(C#N)n2Cc1cn[nH]c1 | -1.27 °C | 2.02 °C
Nc1nc(NC2CC2)cc(-c2cccc(Cl)c2Cl)n1 | 0.04 °C | 0.95 °C
Cc1ncsc1-c1ccc(CNC(=O)[C@@H]2C[C@@H](O)CN2C(=O)[C@@H](NC(=O)COCCOCCOc2ccc(-c3ccc4ncnc(Nc5ccc(OCc6cccc(F)c6)c(Cl)c5)c4c3)cc2)C(C)(C)C)cc1 | -3.99 °C | 0 °C
O=C(NCCc1cc(C(=O)NO)no1)c1ccc(Cl)c(Cl)c1 | 0.8 °C | -1.25 °C
CC(C)n1nc(-c2cc3cc(O)ccc3[nH]2)c2c(N)ncnc21 | 4.67 °C | 1.52 °C
CC(C)(C)OC(=O)N1CCC[C@H]1C(=O)N1CCC[C@H]1C=O (Boc-Pro-Pro-aldehyde) | 0.01 °C | -0.14 °C
C[C@H](CN[C@@H](C(=O)Nc1ccc(-c2cnn(C)c2)cn1)c1ccccc1)c1ccc(C#N)cc1 | 0.96 °C | -3.43 °C
CC(C)(O)c1ccc(N2Cc3c(ccnc3-c3ccc(F)cc3OCC(F)(F)F)C2=O)cc1 | -4.87 °C | -1.27 °C
COc1ncc(C)cc1CC[C@@](O)(CC(=O)O)C(=O)O | 0.32 °C | 1.67 °C

Compound | ΔTm [1] | ΔTm [2]
CCNC(=O)NCCSC[C@H]1O[C@@H](n2cnc3c(N)ncnc32)[C@H](O)[C@@H]1O | 0.95 °C | -1.31 °C
CCC(=O)N1CCOc2c(cc(-c3cc(OC)cc(OC)c3)cc2C(=O)N[C@H]2CCCN(C)C2)C1 | 0.29 °C | -0.83 °C
CC(=O)Nc1ccc(OC[C@](C)(O)C(=O)Nc2ccc([N+](=O)[O-])c(C(F)(F)F)c2)cc1 | 2.59 °C | 0.97 °C
CN(C)CC(c1ccc(O)cc1)C1(O)CCCCC1 (stereo unspecified) | -0.09 °C | -1.07 °C
CCn1c(=S)[nH]c2cc3c(NCc4ccccc4N4CCC(CO)CC4)ncnc3cc21 | -0.06 °C | 1.64 °C
CS(=O)(=O)N1CCN(C(=O)c2cnc3ccc(F)cc3c2N2CCC(C#N)(c3ccccc3)CC2)CC1 | -4.51 °C | 1.45 °C
COc1ccc(Cc2nc(O)c3c(C)nc([C@@H](CCCc4ccccc4)[C@@H](C)O)n3n2)cc1OC | 0.51 °C | 0.21 °C
Cc1cc(C(=O)N2CCN(C3CN(C(=O)c4ccc(-c5ccccc5)cc4)C3)CC2)no1 | 1.38 °C | -1.49 °C
Cc1cc(-c2ccc3nc(C4CCOCC4)n(CCOC(F)(F)F)c3c2)cn(C)c1=O | 0.33 °C | 4.67 °C
CN(C)Cc1ccc(S(=O)(=O)n2ccc(/C=C/C(=O)NO)c2)cc1 | 0.36 °C | -0.83 °C
O=C(Oc1cccc(F)c1OC(=O)c1cccc(O)c1)c1cccc(O)c1 | 0.56 °C | 3.01 °C
Nc1ncnc2c1c(I)cn2[C@@H]1O[C@H](CO)[C@@H](O)[C@H]1O | 2.17 °C | 2.98 °C
CS(=O)(=O)N1CCN(C(=O)c2cnc3ccc(F)cc3c2-c2ccc(C3(C#N)CC3)cc2)CC1 | 0.1 °C | 0.38 °C
O=C(NCC(=O)N1CCCCC1)Nc1ccc2nnsc2c1 | 0.59 °C | -1.05 °C
NS(=O)(=O)OC[C@H]1C[C@@H](Nc2ccnc3cc(-c4cccc(SC(F)(F)F)c4)nn23)[C@H](O)[C@@H]1O | -0.4 °C | 3.28 °C
Cc1cc(C)c(CNC(=O)c2cc(Cl)c3c(c2C)O[C@@](C)([C@H]2CC[C@H](N(C)C)CC2)O3)c(=O)[nH]1 | -1.83 °C | -0.71 °C
CC(=O)Nc1ccc(-c2cc(-c3ccccc3)nc3cc(C(=O)NCCCn4ccnc4)nn23)cc1 | 0.21 °C | -0.4 °C
O=C(O)CCNC(=S)NCCCC[C@H](NS(=O)(=O)c1cccc(F)c1)C(=O)N[C@@H](Cc1c[nH]c2ccccc12)C(=O)NC1CCC1 | -0.15 °C | 1.86 °C
CS(=O)(=O)Nc1ccc2oc3c(OC(F)F)ccc(C(=O)Nc4c(Cl)cncc4Cl)c3c2c1 | -0.38 °C | 0.46 °C
CCC(=O)N[C@H]1CC[C@@H](C(=O)N(C)c2ccc(-c3nc4ccccc4o3)cc2)C1 | 0.23 °C | 0.27 °C
CS(=O)(=O)c1ccc(-c2cnc(NCc3ccco3)n3cnnc23)cc1 | 0.54 °C | -1.15 °C
N[C@@H](CC(=O)Nc1ccc(Oc2cc(F)c(F)cc2Br)cc1)C(=O)O | -0.01 °C | 0.59 °C
Cc1n[nH]c(C)c1Cc1sc2c(c1C(=O)N1C[C@H](O)CO1)c(=O)n(C)c(=O)n2CC(C)C | 0.22 °C | 2.27 °C
Cc1nc(F)ccc1-c1cc(Cn2ccn(C)c2=N)cc(C(=O)NCc2ccc(Cl)c(Cl)c2)c1 | 0.16 °C | -1.3 °C
Nc1cccc(Nc2ncc(-c3ccc(Cl)cc3)o2)c1 | 2.1 °C | 4.7 °C
CCN1C(C)(C)CC(Oc2ccc(C(=O)Nc3ccc(NC(=O)Nc4cc(C(C)(C)C)on4)cc3)nc2)CC1(C)C | -2 °C | -1.03 °C
